Test results as given in ChEMBL document CHEMBL1144455, “A small molecule-kinase interaction map for clinical kinase inhibitors” (Nat Biotechnol, 2005).

Assays:
[1] = target: Serine/threonine-protein kinase pim-2 (Homo sapiens, UniProt Q9P1W9)
[2] = target: T1, Serine/threonine-protein kinase Nek9 (Homo sapiens, UniProt Q8TD19)
T1 sequence (Q8TD19 whole entry): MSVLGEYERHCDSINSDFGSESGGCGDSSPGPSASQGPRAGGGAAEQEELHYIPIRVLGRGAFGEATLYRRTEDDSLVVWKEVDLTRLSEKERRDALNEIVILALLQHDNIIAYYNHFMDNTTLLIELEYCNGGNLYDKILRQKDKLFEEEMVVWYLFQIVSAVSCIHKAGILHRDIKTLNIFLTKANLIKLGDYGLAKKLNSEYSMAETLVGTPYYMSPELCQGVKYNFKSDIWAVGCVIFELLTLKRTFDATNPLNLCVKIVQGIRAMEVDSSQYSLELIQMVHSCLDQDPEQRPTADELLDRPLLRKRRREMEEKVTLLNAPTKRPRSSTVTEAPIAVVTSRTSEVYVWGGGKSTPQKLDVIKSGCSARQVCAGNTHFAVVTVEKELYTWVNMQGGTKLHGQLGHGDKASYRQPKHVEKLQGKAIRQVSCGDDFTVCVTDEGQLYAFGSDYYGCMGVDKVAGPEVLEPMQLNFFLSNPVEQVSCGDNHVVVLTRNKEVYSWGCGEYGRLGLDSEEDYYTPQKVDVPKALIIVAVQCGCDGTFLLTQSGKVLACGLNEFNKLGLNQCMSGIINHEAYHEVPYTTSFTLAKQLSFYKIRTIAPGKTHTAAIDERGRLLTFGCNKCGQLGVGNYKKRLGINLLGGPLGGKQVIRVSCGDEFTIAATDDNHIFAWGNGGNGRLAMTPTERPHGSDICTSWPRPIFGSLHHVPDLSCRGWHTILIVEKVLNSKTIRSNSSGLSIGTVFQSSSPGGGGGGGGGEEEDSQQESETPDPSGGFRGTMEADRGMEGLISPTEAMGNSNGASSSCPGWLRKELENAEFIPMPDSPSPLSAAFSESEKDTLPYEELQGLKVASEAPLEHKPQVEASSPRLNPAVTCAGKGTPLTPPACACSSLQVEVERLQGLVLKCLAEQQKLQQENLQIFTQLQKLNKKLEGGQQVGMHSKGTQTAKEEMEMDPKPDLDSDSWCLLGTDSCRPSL

[3] = target: T2, Serine/threonine-protein kinase 4 (Homo sapiens, UniProt Q13043)
T2 sequence (Q13043 whole entry): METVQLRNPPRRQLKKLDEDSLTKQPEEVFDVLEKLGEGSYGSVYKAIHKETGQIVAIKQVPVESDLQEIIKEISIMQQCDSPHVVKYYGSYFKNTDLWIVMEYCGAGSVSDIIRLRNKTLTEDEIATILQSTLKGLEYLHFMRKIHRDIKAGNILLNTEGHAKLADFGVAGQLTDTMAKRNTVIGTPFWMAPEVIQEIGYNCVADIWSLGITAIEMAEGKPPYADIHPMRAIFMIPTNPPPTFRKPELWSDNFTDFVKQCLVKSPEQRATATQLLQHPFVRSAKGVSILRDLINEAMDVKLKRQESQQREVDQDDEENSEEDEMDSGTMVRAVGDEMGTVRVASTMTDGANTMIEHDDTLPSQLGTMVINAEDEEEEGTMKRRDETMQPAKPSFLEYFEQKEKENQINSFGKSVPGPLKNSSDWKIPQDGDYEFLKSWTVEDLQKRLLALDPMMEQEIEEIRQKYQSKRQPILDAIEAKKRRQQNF

Angiopoietin-1 receptor = Angiopoietin-1 receptor (Homo sapiens, UniProt Q02763)
[4] = target: Myosin light chain kinase 2, skeletal/cardiac muscle (Homo sapiens, UniProt Q9H1R3)
[5] = target: Fibroblast growth factor receptor 3 (Homo sapiens, UniProt P22607)
[6] = target: High affinity nerve growth factor receptor (Homo sapiens, UniProt P04629)
[7] = target: Vascular endothelial growth factor receptor 3 (Homo sapiens, UniProt P35916)
[8] = target: Protein kinase C alpha type (Homo sapiens, UniProt P17252)
[9] = target: Tyrosine-protein kinase JAK1 (Homo sapiens, UniProt P23458)
[10] = target: Ribosomal protein S6 kinase alpha-5 (Homo sapiens, UniProt O75582)
[11] = target: Tyrosine-protein kinase CSK (Homo sapiens, UniProt P41240)
[12] = target: Calcium/calmodulin-dependent protein kinase type II subunit gamma (Homo sapiens, UniProt Q13555)
[13] = target: Serine/threonine-protein kinase PAK 1 (Homo sapiens, UniProt Q13153)
[14] = target: T3, Serine/threonine-protein kinase ULK3 (Mus musculus, UniProt Q3U3Q1)
T3 sequence (Q3U3Q1 whole entry): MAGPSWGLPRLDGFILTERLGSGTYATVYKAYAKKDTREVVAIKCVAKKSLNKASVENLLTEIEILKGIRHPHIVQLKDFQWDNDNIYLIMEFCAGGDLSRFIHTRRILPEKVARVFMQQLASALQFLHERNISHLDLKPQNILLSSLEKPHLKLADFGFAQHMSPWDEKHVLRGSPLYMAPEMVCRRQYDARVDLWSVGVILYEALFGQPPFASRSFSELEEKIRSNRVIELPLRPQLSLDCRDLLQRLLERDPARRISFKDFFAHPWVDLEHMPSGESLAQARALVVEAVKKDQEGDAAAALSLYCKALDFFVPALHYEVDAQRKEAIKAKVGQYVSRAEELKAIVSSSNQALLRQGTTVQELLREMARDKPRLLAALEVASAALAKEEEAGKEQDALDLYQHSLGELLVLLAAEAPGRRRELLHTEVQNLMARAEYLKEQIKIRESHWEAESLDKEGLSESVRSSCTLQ

[15] = target: Tyrosine-protein kinase ABL1 (Homo sapiens, UniProt P00519, T315I)

Measured: Kd

Chain of Myosin light chain kinase 2, skeletal/cardiac muscle (Q9H1R3 whole entry): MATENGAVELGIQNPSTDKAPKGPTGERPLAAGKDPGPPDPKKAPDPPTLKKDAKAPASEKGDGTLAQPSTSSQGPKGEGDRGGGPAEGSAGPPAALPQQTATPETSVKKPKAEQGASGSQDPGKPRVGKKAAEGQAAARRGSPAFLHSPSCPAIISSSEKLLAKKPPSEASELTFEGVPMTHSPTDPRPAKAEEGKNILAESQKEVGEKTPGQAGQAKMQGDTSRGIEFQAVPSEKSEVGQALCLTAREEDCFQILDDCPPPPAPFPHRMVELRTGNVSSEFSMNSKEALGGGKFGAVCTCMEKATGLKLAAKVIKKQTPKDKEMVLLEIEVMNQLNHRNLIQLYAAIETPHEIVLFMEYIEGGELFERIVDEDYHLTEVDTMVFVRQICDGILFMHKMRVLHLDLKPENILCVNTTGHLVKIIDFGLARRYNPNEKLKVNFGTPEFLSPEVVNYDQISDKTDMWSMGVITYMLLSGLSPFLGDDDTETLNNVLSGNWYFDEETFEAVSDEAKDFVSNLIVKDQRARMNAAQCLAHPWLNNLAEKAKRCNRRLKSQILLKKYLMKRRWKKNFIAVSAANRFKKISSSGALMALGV
Chain of Tyrosine-protein kinase CSK (P41240 whole entry): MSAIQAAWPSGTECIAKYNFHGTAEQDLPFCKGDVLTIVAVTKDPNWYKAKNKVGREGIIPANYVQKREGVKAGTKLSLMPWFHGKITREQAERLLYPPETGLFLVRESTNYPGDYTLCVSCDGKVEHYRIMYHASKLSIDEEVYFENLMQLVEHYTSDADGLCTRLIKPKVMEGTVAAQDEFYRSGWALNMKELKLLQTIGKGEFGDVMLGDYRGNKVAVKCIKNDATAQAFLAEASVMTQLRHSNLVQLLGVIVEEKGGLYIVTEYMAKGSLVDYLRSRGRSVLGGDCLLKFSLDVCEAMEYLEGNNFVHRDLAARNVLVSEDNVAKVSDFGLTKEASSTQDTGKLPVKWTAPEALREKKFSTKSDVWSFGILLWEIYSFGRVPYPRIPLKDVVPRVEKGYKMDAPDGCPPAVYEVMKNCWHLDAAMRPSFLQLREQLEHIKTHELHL
Chain of Angiopoietin-1 receptor (Q02763 whole entry): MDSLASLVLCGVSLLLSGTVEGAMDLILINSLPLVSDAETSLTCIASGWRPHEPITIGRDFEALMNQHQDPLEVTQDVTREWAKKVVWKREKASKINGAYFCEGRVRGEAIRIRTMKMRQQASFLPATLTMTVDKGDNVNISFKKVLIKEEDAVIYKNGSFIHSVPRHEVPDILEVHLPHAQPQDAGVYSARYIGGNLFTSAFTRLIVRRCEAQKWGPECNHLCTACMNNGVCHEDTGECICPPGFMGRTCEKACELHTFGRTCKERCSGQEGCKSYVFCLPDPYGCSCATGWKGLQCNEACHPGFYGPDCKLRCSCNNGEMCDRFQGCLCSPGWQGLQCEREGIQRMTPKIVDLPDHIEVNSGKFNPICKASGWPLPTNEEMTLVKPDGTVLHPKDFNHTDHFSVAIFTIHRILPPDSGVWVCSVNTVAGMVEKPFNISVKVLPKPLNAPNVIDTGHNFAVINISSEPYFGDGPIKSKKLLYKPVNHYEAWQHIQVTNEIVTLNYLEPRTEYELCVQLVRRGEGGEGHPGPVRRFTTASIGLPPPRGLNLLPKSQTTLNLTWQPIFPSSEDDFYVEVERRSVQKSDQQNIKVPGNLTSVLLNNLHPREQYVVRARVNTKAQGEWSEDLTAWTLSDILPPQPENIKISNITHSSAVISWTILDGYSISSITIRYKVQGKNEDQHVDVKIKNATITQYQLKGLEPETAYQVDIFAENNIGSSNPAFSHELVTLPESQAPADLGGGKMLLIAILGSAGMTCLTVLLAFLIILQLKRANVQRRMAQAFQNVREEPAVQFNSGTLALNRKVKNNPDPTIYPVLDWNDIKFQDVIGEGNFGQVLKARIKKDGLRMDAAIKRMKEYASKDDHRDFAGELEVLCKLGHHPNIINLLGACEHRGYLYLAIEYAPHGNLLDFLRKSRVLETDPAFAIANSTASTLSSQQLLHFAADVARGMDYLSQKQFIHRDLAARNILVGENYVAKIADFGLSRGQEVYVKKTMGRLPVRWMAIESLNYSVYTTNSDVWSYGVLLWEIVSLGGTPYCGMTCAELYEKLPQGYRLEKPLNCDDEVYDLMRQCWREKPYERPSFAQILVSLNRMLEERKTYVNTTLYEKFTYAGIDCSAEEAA
Chain of Ribosomal protein S6 kinase alpha-5 (O75582 whole entry): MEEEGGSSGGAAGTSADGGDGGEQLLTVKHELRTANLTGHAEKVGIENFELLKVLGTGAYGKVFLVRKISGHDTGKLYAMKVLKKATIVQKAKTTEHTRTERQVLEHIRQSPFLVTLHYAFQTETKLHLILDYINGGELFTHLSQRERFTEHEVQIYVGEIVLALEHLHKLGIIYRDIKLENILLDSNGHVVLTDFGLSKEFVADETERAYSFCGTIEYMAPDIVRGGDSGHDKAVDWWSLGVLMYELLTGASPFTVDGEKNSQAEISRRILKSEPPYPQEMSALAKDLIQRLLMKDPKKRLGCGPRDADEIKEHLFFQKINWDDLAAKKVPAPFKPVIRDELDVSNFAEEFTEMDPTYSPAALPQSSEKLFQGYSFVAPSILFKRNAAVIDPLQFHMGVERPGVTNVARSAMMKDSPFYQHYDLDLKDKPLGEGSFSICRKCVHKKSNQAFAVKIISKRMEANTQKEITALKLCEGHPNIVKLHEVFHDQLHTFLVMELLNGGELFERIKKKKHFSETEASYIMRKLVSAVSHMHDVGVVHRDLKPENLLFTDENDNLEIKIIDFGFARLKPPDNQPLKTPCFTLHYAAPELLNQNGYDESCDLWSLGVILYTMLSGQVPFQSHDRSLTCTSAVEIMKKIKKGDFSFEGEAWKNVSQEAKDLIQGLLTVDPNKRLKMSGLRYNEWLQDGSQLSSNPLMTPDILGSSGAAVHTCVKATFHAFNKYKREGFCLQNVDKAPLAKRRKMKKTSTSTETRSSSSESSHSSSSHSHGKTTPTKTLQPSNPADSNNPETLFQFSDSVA
Chain of Serine/threonine-protein kinase pim-2 (Q9P1W9 whole entry): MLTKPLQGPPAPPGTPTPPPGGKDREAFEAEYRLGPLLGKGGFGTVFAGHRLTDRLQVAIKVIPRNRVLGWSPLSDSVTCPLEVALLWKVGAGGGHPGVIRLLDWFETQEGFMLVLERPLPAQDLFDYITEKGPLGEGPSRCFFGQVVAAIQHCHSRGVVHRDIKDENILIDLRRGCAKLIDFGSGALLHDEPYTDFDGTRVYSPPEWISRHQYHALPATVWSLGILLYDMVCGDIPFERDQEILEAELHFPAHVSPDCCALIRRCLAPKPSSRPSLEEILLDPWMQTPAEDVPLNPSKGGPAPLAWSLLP
Chain of Fibroblast growth factor receptor 3 (P22607 whole entry): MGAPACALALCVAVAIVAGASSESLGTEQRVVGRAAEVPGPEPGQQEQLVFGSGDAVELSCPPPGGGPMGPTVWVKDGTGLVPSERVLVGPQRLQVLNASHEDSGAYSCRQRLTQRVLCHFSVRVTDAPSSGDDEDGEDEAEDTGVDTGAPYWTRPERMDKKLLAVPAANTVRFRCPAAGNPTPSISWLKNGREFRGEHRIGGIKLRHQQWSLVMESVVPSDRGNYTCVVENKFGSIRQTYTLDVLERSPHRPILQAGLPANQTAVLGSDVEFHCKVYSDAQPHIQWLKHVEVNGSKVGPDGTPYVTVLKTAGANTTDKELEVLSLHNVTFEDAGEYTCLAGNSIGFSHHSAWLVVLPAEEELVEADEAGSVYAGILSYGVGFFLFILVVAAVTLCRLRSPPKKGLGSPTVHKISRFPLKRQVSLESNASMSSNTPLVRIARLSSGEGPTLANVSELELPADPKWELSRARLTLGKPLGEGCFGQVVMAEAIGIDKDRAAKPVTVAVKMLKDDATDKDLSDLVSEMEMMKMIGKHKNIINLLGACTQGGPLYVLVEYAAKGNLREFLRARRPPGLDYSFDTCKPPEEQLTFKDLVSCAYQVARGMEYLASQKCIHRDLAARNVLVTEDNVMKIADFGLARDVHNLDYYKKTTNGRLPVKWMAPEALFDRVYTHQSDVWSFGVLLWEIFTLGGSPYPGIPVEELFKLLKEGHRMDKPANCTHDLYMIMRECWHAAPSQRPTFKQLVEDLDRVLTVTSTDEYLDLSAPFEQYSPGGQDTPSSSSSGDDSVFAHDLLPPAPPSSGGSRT

C#Cc1cccc(Nc2ncnc3cc(OCCOC)c(OCCOC)cc23)c1 [ERLOTINIB]
Not Active: [1] | [2] | [3] | Angiopoietin-1 receptor | [4] | [5] | [6] | [7] | [8] | [9] | [10] | [11] | [12] | [13]

Cc1ccc(NC(=O)c2ccc(CN3CCN(C)CC3)cc2)cc1Nc1nccc(-c2cccnc2)n1 [IMATINIB]
Not Active: [1] | [14] | [2] | [3] | Angiopoietin-1 receptor | [4] | [5] | [6] | [7] | [8] | [9] | [10] | [11] | [12] | [13]

O=c1ncn2nc(Sc3ccc(F)cc3F)ccc2c1-c1c(Cl)cccc1Cl [NEFLAMAPIMOD]
Not Active: [15] | [1] | [14] | [2] | [3] | Angiopoietin-1 receptor | [4] | [5] | [6] | [7] | [8] | [9] | [10] | [11] | [12] | [13]

CCOc1cc2ncc(C#N)c(Nc3ccc(F)c(Cl)c3)c2cc1NC(=O)/C=C/CN(C)C [PELITINIB]
Not Active: [1] | [2] | [5] | [6] | [7] | [8] | [9] | [10] | [12]

Oc1ccc(-c2nc(-c3ccc(F)cc3)c(-c3ccncc3)[nH]2)cc1 [SB-202190]
Not Active: [15] | [1] | [14] | [2] | [3] | Angiopoietin-1 receptor | [4] | [5] | [6] | [7] | [8] | [9] | [10] | [11] | [12] | [13]

C[S+]([O-])c1ccc(-c2nc(-c3ccc(F)cc3)c(-c3ccncc3)[nH]2)cc1 (stereo not drawn) [SB-203580]
Not Active: [15] | [1] | [14] | [2] | [3] | Angiopoietin-1 receptor | [4] | [5] | [6] | [7] | [8] | [9] | [10] | [11] | [12] | [13]

Oc1c2ccccc2c2c3c(cccc13)N=N2 [SP-600125]
Not Active: [15] | [2] | Angiopoietin-1 receptor | [4] | [5] | [6] | [7] | [8] | [9] | [11] | [12] | [13]

COc1cc2c(N3CCN(C(=O)Nc4ccc(OC(C)C)cc4)CC3)ncnc2cc1OCCCN1CCCCC1 [TANDUTINIB]
Not Active: [15] | [1] | [14] | [2] | [3] | Angiopoietin-1 receptor | [4] | [5] | [7] | [8] | [9] | [10] | [11] | [12] | [13]
